# Patent publication EP0184291B1, “Polyether antibiotic A80190” (ELI LILLY AND COMPANY, priority 1984, dated 1986)
# Where a SMILES comes first, the peptide text is derived from it. Bridges are numbered along the chain shown (N, C = ends). [ ]: non-standard residue; d: D form. The star is where a group is joined. Ileψ(thiazoline)Cys = CC[C@H](C)[C@H](N)C1=N[C@H](C(=O)*)CS1; dOrn = NCCC[C@@H](N)C(=O)O
# Assays:
# NRRL 15878 = test: Resistance to antibiotics, sensitivity discs on seeded ISP No. 2 agar; type: cell-based, Actinomadura oligospora
# Protocol: (§1) Resistance to antibiotics was measured by padding antibiotic sensitivity discs onto the surface of seeded ISP No. 2 agar plates.
# (§2) Table III lists the resistance of the strain to various antibiotics at the concentrations indicated and compares it to that of A. macra.
# A. macra = test: as above; type: cell-based
# Protocol: as §1, §2
molecule,measurement,setting,value
CC[C@H](C)[C@H](N)C1=N[C@H](C(=O)N[C@@H](CC(C)C)C(=O)N[C@H](CCC(=O)O)C(=O)N[C@H](C(=O)N[C@H]2CCCCNC(=O)[C@H](CC(N)=O)NC(=O)[C@@H](CC(=O)O)NC(=O)[C@H](Cc3cnc[nH]3)NC(=O)[C@@H](Cc3ccccc3)NC(=O)[C@H]([C@@H](C)CC)NC(=O)[C@@H](CCCN)NC2=O)[C@@H](C)CC)CS1 [Bacitracin] ({Ileψ(thiazoline)Cys}-L[dE]IK[dOrn]I[dF]H[dD]N; lactam 4-C),Resistance to Antibiotics,NRRL 15878; Concentration 10 units,+
same,Resistance to Antibiotics,A. macra; Concentration 10 units,-
CC(=O)OCC1=C(C(=O)O)N2C(=O)[C@@H](NC(=O)Cc3cccs3)[C@H]2SC1 [Cephalothin],Resistance to Antibiotics,A. macra; Concentration 30 µg,+
CC1(C)S[C@@H]2[C@H](NC(=O)Cc3ccccc3)C(=O)N2[C@H]1C(=O)O [Pencillin G],Resistance to Antibiotics,A. macra; Concentration 10 units,+
CO[C@H]1/C=C/O[C@@]2(C)Oc3c(C)c(O)c4c(O)c(c(/C=N/N5CCN(C)CC5)c(O)c4c3C2=O)NC(=O)/C(C)=C\C=C\[C@H](C)[C@H](O)[C@@H](C)[C@@H](O)[C@@H](C)[C@H](OC(C)=O)[C@@H]1C [Rifampin],Resistance to Antibiotics,A. macra; Concentration 5 µg,+
[H]/N=C(/N)N[C@H]1[C@H](O)[C@@H](O)[C@H](O[C@@H]2O[C@@H](C)[C@](O)(C=O)[C@H]2O[C@@H]2O[C@@H](CO)[C@H](O)[C@@H](O)[C@@H]2NC)[C@@H](N/C(N)=N\[H])[C@@H]1O [Streptomycin],Resistance to Antibiotics,A. macra; Concentration 10 µg,+
CN(C)[C@@H]1C(O)=C(C(N)=O)C(=O)[C@@]2(O)C(O)=C3C(=O)c4c(O)cccc4[C@@](C)(O)[C@H]3C[C@@H]12 [Tetracycline],Resistance to Antibiotics,A. macra; Concentration 30 µg,-
CN[C@H](CC(C)C)C(=O)N[C@H]1C(=O)N[C@@H](CC(N)=O)C(=O)N[C@H]2C(=O)N[C@H]3C(=O)N[C@H](C(=O)N[C@H](C(=O)O)c4cc(O)cc(O)c4-c4cc3ccc4O)[C@H](O)c3ccc(c(Cl)c3)Oc3cc2cc(c3O[C@@H]2O[C@H](CO)[C@@H](O)[C@H](O)[C@H]2O[C@H]2C[C@](C)(N)[C@H](O)[C@H](C)O2)Oc2ccc(cc2Cl)[C@H]1O [Vancomycin],Resistance to Antibiotics,NRRL 15878; Concentration 30 µg,-
same,Resistance to Antibiotics,A. macra; Concentration 30 µg,-
Gentamicin,Resistance to Antibiotics,NRRL 15878; Concentration 10 µg,-
same,Resistance to Antibiotics,A. macra; Concentration 10 µg,-
